Laboratory results as given in ChEMBL document CHEMBL6071211, “Invention of VH-937, a Potent HIV-1 Maturation Inhibitor with the Potential for Infrequent Oral Dosing in Humans” (ACS Med Chem Lett, 2024).
Converted amounts (≈) assume the structure as drawn.

Legend:
[1] = Aqueous solubility of compound in fed state simulated intestinal fluid (FeSSIF); format: physicochemical; settings: simulated gi fluid
[2] = tested on: Human immunodeficiency virus 1; experiment: Ratio of EC50 for antiviral activity against fully replicating pseudotype HIV1 harboring Gag deltaV370 mutant by single cycle assay to EC50 for antiviral activity against fully replicating wild type pseudotype HIV1 NLRepRluc-P373S by single cycle assay; format: functional
[3] = Elimination half life in rat at 1 mg/kg, iv; format: ADME, organism-based; settings: in vivo, read-out: beta t1/2 (converted)
[4] = Volume of distribution at steady state in Cynomolgus monkey at 2 mg/kg, iv; format: ADME, organism-based, Macaca fascicularis; settings: in vivo, read-out: Vdss
[5] = Elimination half life in mouse at 1 mg/kg, iv; format: ADME, organism-based; settings: in vivo, read-out: beta t1/2 (converted)
[6] = tested on: Human immunodeficiency virus 1; experiment: Ratio of EC50 for antiviral activity against fully replicating pseudotype HIV1 harboring Gag V370A mutant by single cycle assay to EC50 for antiviral activity against fully replicating wild type pseudotype HIV1 NLRepRluc-P373S by single cycle assay; format: functional
[7] = tested on: Human immunodeficiency virus 1; experiment: Ratio of EC50 for antiviral activity against fully replicating pseudotype HIV1 harboring Gag V3621/V370A mutant by single cycle assay to EC50 for antiviral activity against fully replicating wild type pseudotype HIV1 NLRepRluc-P373S by single cycle assay; format: functional
[8] = tested on: Human immunodeficiency virus 1; experiment: In vitro antiviral activity against fully replicating pseudotype HIV1 harboring Gag A364V mutant by single cycle assay; format: functional, organism-based
[9] = Metabolic stability in mouse liver microsomes assessed as half life; format: ADME, Microsome
[10] = tested on: Human immunodeficiency virus 1; experiment: In vitro antiviral activity against fully replicating HIV1 harboring Gag […]/V370A mutant assessed as maximum percent inhibition by multicycle assay relative to control; format: functional
[11] = tested on: Human immunodeficiency virus 1; experiment: In vitro antiviral activity against fully replicating HIV1 NL4-3 harboring Gag A364V mutant; format: functional, organism-based; settings: Human immunodeficiency virus 1, NL4-3
[12] = Oral bioavailability in Cynomolgus monkey at 5 mg/kg; format: ADME, organism-based, Macaca fascicularis; settings: in vivo
[13] = tested on: Human immunodeficiency virus 1; experiment: Ratio of EC50 for antiviral activity against fully replicating pseudotype HIV1 harboring to Gag T332S/[…]/prR41G mutant by single cycle assay to EC50 for antiviral activity against fully replicating wild type pseudotype HIV1 NLRepRluc-P373S by single cycle assay; format: functional
[14] = Elimination half life in Cynomolgus monkey at 5 mg/kg, po; format: ADME, organism-based, Macaca fascicularis; settings: in vivo, read-out: beta t1/2 (converted)
[15] = tested on: Human immunodeficiency virus 1; experiment: In vitro antiviral activity against fully replicating wild type pseudotype HIV1 NLRepRluc-P373S assessed as maximum percent inhibition by single cycle assay relative to control; format: functional
[16] = tested on: Human immunodeficiency virus 1; experiment: In vitro antiviral activity against fully replicating pseudotype HIV1 harboring Gag T332S/[…]/prR41G mutant assessed as maximum percent inhibition by single cycle assay relative to control; format: functional
[17] = AUC (infinity) in rat at 5 mg/kg, po; format: ADME, organism-based; settings: in vivo
[18] = tested on: Human immunodeficiency virus 1; experiment: In vitro antiviral activity against fully replicating HIV1 harboring Gag V370A/deltaV371 mutant assessed as maximum percent inhibition by multicycle assay relative to control; format: functional
[19] = Oral bioavailability in mouse at 5 mg/kg; format: ADME, organism-based; settings: in vivo
Cytochrome P450 2C19 = Cytochrome P450 2C19 (Homo sapiens, UniProt P33261); experiment: Inhibition of CYP2C19 (unknown origin); format: ADME
Cytochrome P450 2C19, sequence (P33261 whole entry): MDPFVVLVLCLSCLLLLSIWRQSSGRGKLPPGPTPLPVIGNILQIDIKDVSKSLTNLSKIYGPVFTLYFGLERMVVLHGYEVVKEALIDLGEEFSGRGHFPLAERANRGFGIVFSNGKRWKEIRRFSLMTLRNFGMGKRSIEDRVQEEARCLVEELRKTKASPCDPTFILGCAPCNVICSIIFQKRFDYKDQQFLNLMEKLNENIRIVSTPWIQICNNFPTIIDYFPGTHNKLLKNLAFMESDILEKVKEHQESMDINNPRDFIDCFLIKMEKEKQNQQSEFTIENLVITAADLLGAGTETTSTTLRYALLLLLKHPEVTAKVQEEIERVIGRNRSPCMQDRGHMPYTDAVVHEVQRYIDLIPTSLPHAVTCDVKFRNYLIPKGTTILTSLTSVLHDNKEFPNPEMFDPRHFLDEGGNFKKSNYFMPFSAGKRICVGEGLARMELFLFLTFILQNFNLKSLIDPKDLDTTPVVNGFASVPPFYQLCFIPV

[20] = AUC (infinity) in mouse at 1 mg/kg, iv; format: ADME, organism-based; settings: in vivo
[21] = tested on: Human immunodeficiency virus 1; experiment: In vitro antiviral activity against fully replicating HIV1 harboring Gag V370A/deltaV371 mutant by multicycle assay; format: functional, organism-based
[22] = tested on: Human immunodeficiency virus 1; experiment: In vitro antiviral activity against HIV1 subtype B clinical isolate 92T593; format: functional, organism-based; settings: Human immunodeficiency virus 1, 92T593
[23] = molecular target: Human immunodeficiency virus type 1 Gag protein (Human immunodeficiency virus 1) (UniProt Q77YG1); experiment: Binding affinity to HIV1 wild type Gag mutant assessed as dissociation half life by virus-like particle (VLP) assay
[24] = tested on: Human immunodeficiency virus 1; experiment: In vitro antiviral activity against fully replicating HIV1 harboring Gag T332S/[…]/prR41G mutant assessed as maximum percent inhibition by multicycle assay relative to control; format: functional
[25] = Aqueous solubility of compound; format: physicochemical; settings: buffer
[26] = Clearance in Cynomolgus monkey at 2 mg/kg, iv; format: ADME, organism-based, Macaca fascicularis; settings: in vivo
[27] = AUC (infinity) in dog at 2 mg/kg, iv; format: ADME, organism-based, Canis lupus familiaris; settings: in vivo
[28] = tested on: Human immunodeficiency virus 1; experiment: In vitro antiviral activity against HIV1 subtype C clinical isolate 97ZA009; format: functional, organism-based; settings: Human immunodeficiency virus 1, 97ZA009
Cytochrome P450 1A2 = molecular target: T1, Cytochrome P450 1A2 (Homo sapiens, UniProt P05177); experiment: Inhibition of CYP1A2 (unknown origin); format: ADME
T1 sequence (P05177 whole entry): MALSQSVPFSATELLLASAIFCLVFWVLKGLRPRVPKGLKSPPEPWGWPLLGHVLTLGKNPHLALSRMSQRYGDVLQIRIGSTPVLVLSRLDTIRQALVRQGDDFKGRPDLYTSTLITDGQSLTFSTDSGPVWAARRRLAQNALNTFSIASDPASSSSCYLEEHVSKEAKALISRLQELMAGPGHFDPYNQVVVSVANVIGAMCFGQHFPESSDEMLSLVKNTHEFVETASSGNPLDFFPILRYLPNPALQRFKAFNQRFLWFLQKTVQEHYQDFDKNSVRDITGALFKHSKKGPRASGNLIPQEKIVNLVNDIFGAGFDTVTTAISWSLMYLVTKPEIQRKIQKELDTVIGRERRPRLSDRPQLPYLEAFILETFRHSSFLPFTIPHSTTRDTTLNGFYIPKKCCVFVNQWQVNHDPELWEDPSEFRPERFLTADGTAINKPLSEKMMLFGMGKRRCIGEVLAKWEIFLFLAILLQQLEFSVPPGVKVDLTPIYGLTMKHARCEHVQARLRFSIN

[29] = tested on: Human immunodeficiency virus 1; experiment: In vitro antiviral activity against fully replicating HIV1 harboring Gag A364V mutant by multicycle assay; format: functional, organism-based
[30] = Elimination half life in rat at 5 mg/kg, po; format: ADME, organism-based; settings: in vivo, read-out: beta t1/2 (converted)
[31] = tested on: Human immunodeficiency virus 1; experiment: Ratio of EC50 for antiviral activity against fully replicating HIV1 harboring Gag A364V mutant by multicycle assay to EC50 for antiviral activity against fully replicating wild type HIV1 NLRepRluc-P373S by multicycle assay; format: functional
[32] = tested on: Human immunodeficiency virus 1; experiment: In vitro antiviral activity against fully replicating wild type HIV1 NL4-3; format: functional, organism-based; settings: Human immunodeficiency virus 1, NL4-3
[33] = Half life in normal healthy human volunteers plasma at 10 mg for 15 days and followed by 30 mg; format: ADME, cell-free; settings: time 15 day
[34] = Metabolic stability in dog liver microsomes assessed as half life; format: ADME, Canis lupus familiaris, Microsome
Cytochrome P450 3A4 = Cytochrome P450 3A4 (Homo sapiens, UniProt P08684); experiment: Inhibition of CYP3A4 (unknown origin); format: ADME
Cytochrome P450 3A4, sequence (P08684 whole entry): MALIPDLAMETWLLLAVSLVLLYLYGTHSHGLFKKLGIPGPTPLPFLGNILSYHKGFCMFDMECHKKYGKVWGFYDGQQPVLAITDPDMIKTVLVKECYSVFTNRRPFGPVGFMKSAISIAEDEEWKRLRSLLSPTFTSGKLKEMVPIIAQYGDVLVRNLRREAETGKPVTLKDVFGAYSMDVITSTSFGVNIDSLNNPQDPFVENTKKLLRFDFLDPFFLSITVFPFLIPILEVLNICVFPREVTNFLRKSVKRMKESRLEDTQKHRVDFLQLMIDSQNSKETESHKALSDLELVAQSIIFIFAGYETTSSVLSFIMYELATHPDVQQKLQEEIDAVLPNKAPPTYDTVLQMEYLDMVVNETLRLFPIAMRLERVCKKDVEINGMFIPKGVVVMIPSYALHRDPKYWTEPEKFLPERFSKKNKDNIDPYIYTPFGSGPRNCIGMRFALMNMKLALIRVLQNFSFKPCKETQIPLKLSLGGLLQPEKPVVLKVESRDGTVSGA

[35] = Volume of distribution at steady state in rat at 1 mg/kg, iv; format: ADME, organism-based; settings: in vivo, read-out: Vdss
[36] = tested on: Human immunodeficiency virus 1; experiment: Ratio of EC50 for antiviral activity against fully replicating HIV1 harboring Gag V370A mutant by multicycle assay to EC50 for antiviral activity against fully replicating wild type HIV1 NLRepRluc-P373S by multicycle assay; format: functional
[37] = tested on: Human immunodeficiency virus 1; experiment: In vitro antiviral activity against fully replicating wild type pseudotype HIV1 NLRepRluc-P373S by single cycle assay; format: functional, organism-based
[38] = Genotoxicity in Salmonella typhimurium by Ames test; format: toxicity; settings: salmonella enterica subsp. enterica serovar typhimurium

SMILES: C=C(C)[C@@H]1CC[C@]2(NCCN3CCS(=O)(=O)CC3)CC[C@]3(C)[C@H](CC[C@@H]4[C@@]5(C)CC=C(C6=CC[C@](COc7ncccc7C#N)(C(=O)O)CC6)C(C)(C)[C@@H]5CC[C@]43C)[C@@H]12
- solubility [1]: 363 µg/mL (≈ 439 µM)
- Ratio EC50 [2]: 2.4
- half-life [3]: 8.6 h
- Vd [4]: 0.3 L/kg
- half-life [5]: 10.9 h
- Ratio EC50 [6]: 1.2
- Ratio EC50 [7]: 2.3
- EC50 [8]: 32 nM
- half-life [9]: > 2 h
- Imax [10]: 94%
- EC50 [11]: 5 nM
- bioavailability [12]: 43.5%
- Ratio EC50 [13]: 4.8
- half-life [14]: 11.4 h
- Imax [15]: 99%
- Imax [16]: 96%
- AUC(0-inf) [17]: 36.3 µM·h
- Imax [18]: 92.2%
- bioavailability [19]: 46%
- IC50 (Cytochrome P450 2C19): > 4400 nM
- AUC(0-inf) [20]: 32.2 µM·h
- EC50 [21]: 5 nM
- EC50 [22]: 1 nM
- T1/2 [23]: 68.8 h
- Imax [24]: 98%
- solubility [25]: < 1000 µg/mL
- clearance [26]: 0.32 mL/min/kg
- AUC(0-inf) [27]: 99.8 µM·h
- EC50 [28]: 5 nM
- IC50 (Cytochrome P450 1A2): > 4400 nM
- EC50 [29]: 5 nM
- half-life [30]: 8.6 h
- Ratio EC50 [31]: 2.5
- EC50 [32]: 1.8 nM
- half-life [33]: 67 h
- half-life [34]: > 2 h
- IC50 (Cytochrome P450 3A4): > 4400 nM
- Vd [35]: 0.87 L/kg
- Ratio EC50 [36]: 2
- EC50 [37]: 5 nM
- Activity [38]: Non-Toxic
